Experimental data published in US4720486A, “Method of inhibiting vertebrate collagenase activity using peptide hydroxamic acid derivatives” (Monsanto Company, priority 1987, dated 1988).
Where a SMILES comes first, the peptide text is derived from it. The star is where a group is joined. Cbz = O=C(OCc1ccccc1)*; NHOH = ON*

Key:
Type in all cases: biochemical
[1] = molecular target: T1, human synovial collagenase (Homo sapiens, UniProt P03956); test: Collagenase inhibition test (14C-collagen assay), synovial collagenase; conditions: for Ki: 0.50 M NaCl, 0.01 M CaCl2, 0.05 M Tris, pH 7.5, 35° C., Dixon plot, single substrate concentration 10 μM collagen
T1 construct: endogenous in cells; host or cells: primary human synovial cells from a knee synovectomy, stimulated with SK Hepatoma conditioned medium
T1 sequence (P03956 100-469): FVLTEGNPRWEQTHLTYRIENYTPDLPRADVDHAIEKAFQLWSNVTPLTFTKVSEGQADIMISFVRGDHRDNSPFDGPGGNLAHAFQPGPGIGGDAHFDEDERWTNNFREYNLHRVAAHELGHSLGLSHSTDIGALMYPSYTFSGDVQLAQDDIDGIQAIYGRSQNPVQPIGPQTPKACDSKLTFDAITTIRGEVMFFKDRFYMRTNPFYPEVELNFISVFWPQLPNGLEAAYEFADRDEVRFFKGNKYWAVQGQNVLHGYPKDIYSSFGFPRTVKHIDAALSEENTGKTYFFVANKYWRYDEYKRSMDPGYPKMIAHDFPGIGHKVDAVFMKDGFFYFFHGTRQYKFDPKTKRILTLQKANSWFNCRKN
Experimental: (§1) ^14 C-collagen was prepared by reductive methylation of calf skin collagen at 4° C. using ^14 C-formaldehyde and sodium borohydride. Calf skin collagen (Sigma) was dissolved at 7.5 mg/ml in 60 ml of 0.10M acetic acid and dialyzed at 4° C. against 0.15M potassium phosphate, pH 7.6, for eight hours followed by dialysis overnight against 0.4M NaCl. The collagen solution was then adjusted to pH 9.0 by addition of 0.50M sodium borate and then 1 mCi of ^14 C-formaldehyde (10 mCi/mmol) was added. After one minute, 0.10M sodium borohydride (660 μl in 1.3 mM NaOH) was added in four aliquots, followed by an additional aliquot (340 μl) 30 minutes later. The solution was then dialyzed exhaustively against 0.01M acetic acid, centrifuged to remove particulates and stored frozen in 1 ml aliquots. Specific activity was 1.3×10^6 DPM/mg. Unlabeled collagen was prepared in the same way, stored frozen and mixed with labeled collagen at a ratio of 9 to 1. For assay, the diluted ^14 C-collagen was dialyzed 6-8 hours at 4° C. against 0.15M potassium phosphate, pH 7.6, followed by dialysis overnight against 0.4M sodium chloride. This solution was centrifuged to remove any undissolved collagen and stored at 4° C.
(§2) Collagenase asays were carried out according to the method of Terato et al., Biochim. Biophys. Acta 445, 753 (1976). They were performed in 1.5 ml polypropylene microfuge tubes. Each assay tube contained 50 μl of ^14 C-collagen solution (4 mg/ml) and 50 μl of 1.0M glucose, 0.10M Tris, 0.4M NaCl, 0.02M CaCl2, pH 7.5. This solution was incubated for ten minutes at 35° C. and the reaction initiated by the addition of 100 μl of enzyme solution. Those samples containing procollagenase were first activated by incubating 100 μl aliquots with 1-5 μl of 10 mg/ml trypsin (in 1 mM HCl) for 20 minutes at 23° C., followed by 20 μl of 5 mg/ml soybean trypsin inhibitor (in 0.05M Tris, 0.01M CaCl2, pH 7.5) to quench the trypsin activity. The collagenase assay was terminated after 30 minutes at 35° C. by the addition of 20 μl of 0.08M 1,10-phenanthroline in 50% (v/v) dioxane and the incubation was continued for one hour at 35° C. to denature the collagen digestion products. Each sample was cooled for 15 minutes at 23° and 200 μl of dioxane was added with vigorous vortexing to precipitate uncleaved collagen. Following centrifugation at 11,000 RPM, 350 μl aliquots were added to 5.0 ml of Pico-Fluor 30 to determine radioactivity.
(§3) Collagenase activities were measured in the presence of the test compounds by adding an aliquot of the compound (0-85 μl) and buffer to 100 μl of glucose-collagen solution to give a total volume of 185 μl, incubating at 35° C. for 10 minutes and then initiating the reaction with 15 μl of purified collagenase. The rest of the assay was performed as described above.
(§4) To determine the mechanism of inhibition, the following equation was used [(Holmquist and Vallee, J. Biol. Chem. 249, 4601 (1974)] [formula] where Ao is the activity in the absence of inhibitor and AI is the activity in the presence of inhibitor.
Approximately 2.0 gms of synovial tissue were obtained from a patient undergoing synovectomy of the knee. All procedures were carried out in a laminar flow hood under aseptic conditions. The tissue was placed in 250 ml McCoys 5A (modified) medium containing 200 μg/ml gentamicin and stored overnight at 0° C. The next day the tissue was warmed to room temperature, cut into 0.25 cm pieces and added to 11 ml of serum-free DMEM, containing 4 mg/ml clostridial collagenase (Worthington). After incubating the mixture for one hour at room temperature, an equal volume of 0.25% trypsin was added and the incubation continued for an additional thirty minutes. The cells were spun down at 400×g for ten minutes, resuspended in 20 ml trypsin/EDTA (Gibco 10×) and incubated for 30 minutes with occasional mixing by drawing through a 25 ml pipet. The suspension was centrifuged and the pellet was washed two times with PBS:DMEM (1:1) containing 10% FBS. […]

[2] = molecular target: T2, human skin fibroblast collagenase (Homo sapiens, UniProt P03956); test: Collagenase inhibition test (14C-collagen assay), skin fibroblast collagenase; conditions: 0.50 M NaCl, 0.01 M CaCl2, 0.05 M Tris, pH 7.5, 35° C.; Dixon plot, single substrate concentration 10 μM collagen
T2 construct: active collagenase isolated by this method consisted of two bands, a major species with molecular weight 45,000; host or cells: normal human skin fibroblasts CRL 1224 in SK Hepatoma conditioned medium
T2 sequence (P03956 100-469): T1 sequence (P03956 100-469)
Experimental: as §1, §2, §3, §4
One vial of normal skin fibroblasts was purchased (American Type Cell Culture CRL 1224), thawed at 37° C. and transferred to a 150 cm^2 T-flask. Fifty ml of DMEM containing 10% FBS were added and the cells incubated for one week at 37° C. under 5% CO2. The cells were then split into three T-flasks. When the flasks became overgrown with cells, normal media was replaced with SK Hepatoma conditioned media and changed twice a week. This media was stored and used as the starting material for collagenase isolation.
The other test compounds were assumed to inhibit by the same mechanism so that all studies were performed at only a single substrate concentration, 10μM, and the KI values were determined from the intersection with the abscissa.

[3] = molecular target: T3, human collagenase isolated from skin fibroblasts and synovial cells (Homo sapiens, UniProt P03956); test: Collagenase inhibition, (enzyme source not distinguished)
T3 construct: endogenous in cells; host or cells: human skin fibroblasts (CRL 1224) or primary human synovial cells; enzyme purified from conditioned medium
T3 sequence (P03956 100-469): T1 sequence (P03956 100-469)
Experimental: as §1, §2
as §3, with “above. […]” for “above.”

Compound `NCC(=O)NO` [Gly--NHOH] has a Ki [1] of 18000 µM and a Ki [2] of over 1000 µM.
`CC(NC(=O)OCc1ccccc1)C(=O)NCC(=O)NO` (centres unmarked) [Z--Ala--Gly--NHOH] gave a Ki [1] of 2600 µM and a Ki [2] of 1300 µM.
`O=C(CNC(=O)CNC(=O)OCc1ccccc1)NO` [Z--Gly--Gly--NHOH] (Cbz-Gly-Gly-{NHOH}) gave a Ki [1] of 2000 µM and a Ki [2] of 3000 µM.
For `O=C(CNC(=O)OCc1ccccc1)NO` [Z--Gly--NHOH], the Ki [1] was 960 µM and the Ki [2] was 600 µM.
Work on `CC(C)CC(NC(=O)OCc1ccccc1)C(=O)NCC(=O)NO` (centres unmarked) [Z--Leu--Gly--NHOH] yielded a Ki [1] of 170 µM and a Ki [2] of 480 µM.
With `CC(C)C[C@H](NC(=O)OCc1ccccc1)C(=O)N[C@@H](CC(C)C)C(=O)NCC(=O)NO` [Z--Leu--Leu--Gly--NHOH] (Cbz-Leu-Leu-Gly-{NHOH}) the Ki [1] was 330 µM and the Ki [2] was 300 µM.
With `CSCCC(NC(=O)OCc1ccccc1)C(=O)NCC(=O)NO` (centres unmarked) [Z--Met--Gly--NHOH] the Ki [1] was 200 µM and the Ki [2] was 150 µM.
Work on `O=C(CNC(=O)C(Cc1ccccc1)NC(=O)OCc1ccccc1)NO` (centres unmarked) [Z--Phe--Gly--NHOH] yielded a Ki [1] of 100 µM and a Ki [2] of 150 µM.
With `CC(C)C[C@H](NC(=O)[C@@H]1CCCN1C(=O)OCc1ccccc1)C(=O)NCC(=O)NO` [Z--Pro--Leu--Gly--NHOH, N-Benzyloxycarbonyl-L-prolyl-L-leucylglycine Hydroxamic Acid] (Cbz-Pro-Leu-Gly-{NHOH}) the Ki [1] was 47 µM, the “mechanism of inhibition (Dixon plot)” value ([1]; three substrate concentrations, 3.9 μM, 1.3 μM and 0.7 μM collagen, FIG. 1) was “non-competitive inhibition” and the “times more active than Zincov” value ([3]; estimated, ratio of KI values) was 50 to 100 times. The KI ([3]; human collagenase) was 40 µM, the “times more effective than the corresponding Z--Leu--Leu--Gly--NHOH analog” value ([3]; ratio of KI values) was “ten” and the Ki [2] was 40 µM.
`CC(C)CC(C(=O)NO)C(=O)N[C@@H](C)C(=O)NCC(N)=O` (stereo partly drawn) [Zincov, 2-(N-Hydroxycarboxamido)-4-methylpentanoyl-L-Ala-glycine amide] gave a Ki ([3]; human collagenase) of 2000 µM.
